Paper PMC6321136, “Combined In Vitro Studies and in Silico Target Fishing for the Evaluation of the Biological Activities of Diphylleia cymosa and Podophyllum hexandrum” (Molecules, 2018)
Converted amounts (≈) assume the structure as drawn.

Legend:
[1] = biological target: T1, acetylcholinesterase enzyme (Electropardus electricous type VI-S) (Electrophorus electricus, UniProt O42275); test: AChE bioautographic assay (TLC); assay type: biochemical; parameters: key: -: not active; +: slight inhibition; ++++: strong inhibition; conditions: intensity of white bands
T1 construct: purchased Sigma-Aldrich, St. Louis, MO, USA type VI-S (catalogue number not given)
Experimental: The bioautographic assay was performed by thin layer chromatography (TLC) according to the method proposed by Marston, Kissling and Hostettman. The extracts were solubilized in methanol (Merck) at 20 mg/mL, and a portion of 10 μL of this solution was applied on a TLC plate (silica gel 60 F254, Merck, Darmstadt, Germany), which was eluted with CHCl3:MeOH (9:1). The acetylcholinesterase enzyme (Electropardus electricous type VI-S, Sigma-Aldrich, St. Louis, MO, USA) solution was prepared by diluting 1 KU of the enzyme in 30 mL of Tris/HCl buffer, pH 7.8, with the addition of 30 mg of bovine serum albumin (BSA). The enzyme solution was sprayed on the TLC plate and incubated in a humid chamber at 37 °C for 20 min. The substrate solution was prepared using 1-naphthyl acetate (2.5 mg/mL) and Fast Blue B salt (2.5 mg/mL), and sprayed on the TLC plate after the incubation period. […] The result was expressed by the intensity of the white bands observed.

[2] = biological target: T2, AChE from Electropardus electricous type VI-S (Electrophorus electricus, UniProt O42275); test: AChE inhibition microplate assay (Ellman); assay type: biochemical; conditions: 400 μg/mL; read-out: Inhibition of AChE Microplate (%I)
T2 construct: purchased Sigma-Aldrich, St. Louis, MO, USA type VI-S (catalogue number not given)
Experimental: AChE inhibition assay was performed on a 96-well microplate according to Ellman’s method with adaptations. Initially, the extracts were solubilized on MeOH, at 20 mg/mL, and diluted to 4 mg/mL using Tris/HCl buffer solution (50 mM, pH 8.0). A portion of 25 µL of the samples (4 mg/mL) were added to the wells of the microplate, as well as 50 μL of 0.1% BSA solution in Tris/HCl Buffe (pH 8.0), 125 μL of DTNB in Tris/HCl (3 mM) containing NaCl (10 mM) and MgCl2 (20 mM). Subsequently, 25 μL of the ATCI aqueous solution (15 mM) was added to all wells. Then, a background reading was performed at 405 nm using microplate reader (Multiskan Go, Thermo Scientific, Whaltham, MA, USA). The enzymatic reaction was initiated after the addition of 25 µL of AChE solution (AChE from Electropardus electricous type VI-S, 0.2 U/mL, Sigma-Aldrich, St. Louis, MO, USA) in Tris/HCl buffer (50 mM, pH 8.0) containing 0.1% BSA. The kinetic cycle was performed in a period of 25 min, with readings at 5 min intervals, at 405 nm. Physostigmine (Eserine, Sigma, St. Louis, MO, USA) was employed as the positive control. […] The assay was performed in triplicate and the % of inhibition (%I) was calculated according to the following equation: %I = [(a − b)/a] × 100, where a = ΔA/min of control; b = ΔA/min of test sample; ΔA = change in absorbance between time x and time zero. […]

[3] = Thiobarbituric acid reactive substances (TBARS) assay; parameters: species or system bovine
Experimental: The evaluation of antioxidant activity using the TBARS assay, with adaptations. Briefly, the samples were solubilized in methanol (50.0 to 31.25 μg/mL) and a portion of 25 μL of each extract solution was added to 10 mL test tubes in triplicate (two reaction tubes and one control). The tubes corresponding to the blank, negative and positive controls were prepared by adding 25 μL of deionized water, MeOH or propylgalate (Sigma, St. Louis, MO, USA, 0.1 mM), respectively. The phospholipid liposomes were prepared using bovine brain extract type VII (Sigma Aldrich, St. Louis, MO, USA, 10 mg/mL) in phosphate buffered saline (PBS) solution. The suspension was subjected to an ultrasonic bath until the formation of the liposomes. […] The butanolic phase was removed and transferred to a 96-well microplate, and the absorbance was recorded on a Multiskan Go microplate reader (Thermo Scientific, Whaltham, MA, USA) at 532 nm. The percentage of inhibition (%I) of lipid peroxidation was calculated as: %I = ((AC − AS)/AC) × 100 where AC is the absorbance of control, AS is the absorbance of samples. Assays were performed in triplicate and IC50 values were determined by non-linear regression using GraphPad Prism, version 6.0 (GraphPad Software, San Diego, CA, USA). […]

[4] = DPPH radical scavenger activity
Experimental: The evaluation of the antioxidant activity using the 2,2-diphenyl-1-picrylhydrazyl radical (DPPH) was performed according to the method proposed by Mensor et al., with adaptations. The samples were dissolved in MeOH at concentrations ranging from 1.0 to 200 μg/mL. A portion of 250 μL of each sample was added to a 96-well microplate. MeOH and pyrogallol (50 µg/mL) were employed as negative and positive controls, respectively. Then, 100 μL of either MeOH (blank wells) or DPPH solution (120 μg/mL, reaction wells) was added to the microplate. The reading was performed on a microplate reader (EL808IU-Biotek model, Biotek, Winooski, VT, USA), at 5 min intervals for a total of 45 min, at 515 nm. The percentage of radical scavenging activity (%RSA) was calculated using the following equation: % RSA = ((AC − AS)/AC) × 100, where AC is the absorbance of control and AS is the absorbance of samples taken at 35 min. The results were expressed in EC50 (effective concentration for 50% capture of the radicals) determined by non-linear regression using GraphPad Prism, version 6.0.

[5] = β-Carotene/linoleic acid co-oxidation assay
Experimental: The evaluation of the antioxidant activity using the β-carotene/linoleic acid co-oxidation system was performed according to Duarte-Almeida et al., with adaptations. The extracts were solubilized in MeOH (2.2 mg/mL) and further diluted to concentrations ranging from 3.125 to 200 μg/mL. An aliquot of 25 μL of sample solutions were added in the 96-well microplate. 25 mg of linoleic acid and 100 mg Tween 20 (Sigma, St. Louis, MO, USA) were added to a round-bottom flask containing 1 mL of a β-carotene solution (1 mg/mL, Sigma, St. Louis, MO, USA) in chloroform. The latter was removed in a rotatory evaporator and, then, 50 mL of aerated water was added to the flask, affording the β-carotene emulsion. Portions of 250 μL of the freshly prepared emulsion were added to the wells corresponding to the odd columns of a microplate. […] Readings were performed immediately at 470 nm. After the first reading, the microplate was incubated at 45 °C and the kinetic cycle was performed with readings at 15 min intervals for a total of 120 min. The antioxidant activity was expressed as % of inhibition of lipid peroxidation (%I), using the formula (I% = Ac (initial abs − Final abs) − Aam (final abs − Initial abs)/Ac × 100). Assays were performed in triplicate and IC50 values were determined by non-linear regression using GraphPad Prism, version 6.0 (GraphPad Software, San Diego, CA, USA).

AChE [6] = system: AChE; parameters: method as in Itoh et al. [85]; conditions: 3 mg/kg; ref Itoh et al. [85]; cited from earlier work
AChE [7] = system: AChE; parameters: method as in El-Hassan et al. [86]; conditions: ref El-Hassan et al. [86]; cited from earlier work

T2 sequence (O42275 24-633): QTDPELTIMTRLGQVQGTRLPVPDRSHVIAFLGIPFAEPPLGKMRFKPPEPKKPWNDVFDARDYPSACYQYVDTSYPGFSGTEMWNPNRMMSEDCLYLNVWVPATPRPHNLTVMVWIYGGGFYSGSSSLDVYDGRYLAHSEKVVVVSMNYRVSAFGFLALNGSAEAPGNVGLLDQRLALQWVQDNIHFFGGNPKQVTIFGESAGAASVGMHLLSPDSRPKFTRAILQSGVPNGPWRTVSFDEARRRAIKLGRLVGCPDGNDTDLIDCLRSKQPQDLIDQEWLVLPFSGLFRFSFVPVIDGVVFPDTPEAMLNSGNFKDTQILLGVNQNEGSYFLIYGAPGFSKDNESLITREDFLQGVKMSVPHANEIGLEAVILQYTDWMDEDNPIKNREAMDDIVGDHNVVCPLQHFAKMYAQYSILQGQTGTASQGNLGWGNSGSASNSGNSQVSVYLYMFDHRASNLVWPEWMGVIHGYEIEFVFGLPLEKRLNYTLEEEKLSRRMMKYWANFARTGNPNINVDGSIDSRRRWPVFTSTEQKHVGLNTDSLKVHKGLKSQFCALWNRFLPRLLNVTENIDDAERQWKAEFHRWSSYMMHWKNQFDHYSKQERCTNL
T1 sequence (O42275 24-633): as above

In the case of `CNC(=O)Oc1ccc2c(c1)[C@]1(C)CCN(C)[C@@H]1N2C` [Physostigmine, reference compound], the “Inhibition of AChE TLC” value [1] is reported as “++++” and the inhibition at 400 µg/mL [2] is reported as 89.8 ± 1.16%.

For `CCCOC(=O)c1cc(O)c(O)c(O)c1` [Propylgalate, propylgalate, reference compound], the “Antioxidant Activity (IC50-µg/mL) TBARS Assay” value [3] was under 20 µg/mL.

In the case of `Oc1cccc(O)c1O` [Pyrogallol, pyrogallol, reference compound], the “Antioxidant Activity (IC50-µg/mL) DPPH Radical Sequestration” value [4] is reported as 1.14 ± 0.15 µg/mL.

In the case of `O=c1c(O)c(-c2ccc(O)c(O)c2)oc2cc(O)cc(O)c12` [Quercetin, quercetin, reference compound], the “Antioxidant Activity (IC50-µg/mL) β-Carotene/linoleic Acid” value [5] is reported as 0.3 ± 0.1 µg/mL.

For `COc1cc2c(c(OC)c1OC)-c1c(cc(OC)c(OC)c1OC)C[C@](C)(O)[C@@H](C)C2` [Schisandrin], the activity in vivo (AChE [6]) is given as “active”.

For `COc1cc([C@H]2OC[C@H]3[C@@H]2CO[C@@H]3c2cc(OC)c(O)c(OC)c2)cc(OC)c1O` [Syringaresinol], the “IC50 AChE inhibition in vitro” value (AChE [7]) is given as 200 µg/mL (≈ 478 µM).
